Source: patent US5843889A, “Glycopeptide antibiotic derivatives” (Eli Lilly and Company, priority 1997, dated 1998)
Values after ≈ are worked out from the molar mass of the structure shown.

Columns and labels:
Experiment in all cases: MIC, standard broth micro-dilution assay
Type in all cases: cell-based
[1] = tested on: Entercoccus faecalis 2041
Method: (§1) The formula I compounds have in vitro and in vivo activity against Gram-positive pathogenic bacteria. The MIC's were determined using a standard broth micro-dilution assay.

[2] = tested on: Entercoccus faecalis 276
Method: as §1

[3] = tested on: Entercoccus gallinarum 245
Method: as §1

Row | Compound | MIC [1] | MIC [2] | MIC [3]
1 | CNC(CC(C)C)C(=O)NC1C(=O)NC(CC(N)=O)C(=O)NC2C(=O)NC3C(=O)NC(C(=O)NC(C(=O)O)c4cc(O)cc(O)c4-c4cc3ccc4O)C(OC3CC(C)(N)C(O)C(C)O3)c3ccc(c(Cl)c3)Oc3cc2cc(c3OC2OC(CO)C(O)C(O)C2OC2CC(C)(NCc3ccc(Oc4cccc(Cl)c4)c([N+](=O)[O-])c3)C(O)C(C)O2)Oc2ccc(cc2Cl)C1O (stereo not drawn) [Compound 87, 4-[3-chlorophenoxy]-3-nitrobenzyl] | ≤ 0.06 µg/mL | ≤ 0.06 µg/mL | 2 µg/mL (≈ 1.08 µM)
2 | CNC(CC(C)C)C(=O)NC1C(=O)NC(CC(N)=O)C(=O)NC2C(=O)NC3C(=O)NC(C(=O)NC(C(=O)O)c4cc(O)cc(O)c4-c4cc3ccc4O)C(OC3CC(C)(N)C(O)C(C)O3)c3ccc(c(Cl)c3)Oc3cc2cc(c3OC2OC(CO)C(O)C(O)C2OC2CC(C)(NCCCCCCCCCC#Cc3ccccc3)C(O)C(C)O2)Oc2ccc(cc2Cl)C1O (stereo not drawn) [Compound 236, 11-phenyl-10-undecynyl] | 1 µg/mL (≈ 0.55 µM) | 2 µg/mL (≈ 1.1 µM) | 4 µg/mL (≈ 2.2 µM)
3 | CNC(CC(C)C)C(=O)NC1C(=O)NC(CC(N)=O)C(=O)NC2C(=O)NC3C(=O)NC(C(=O)NC(C(=O)O)c4cc(O)cc(O)c4-c4cc3ccc4O)C(OC3CC(C)(N)C(O)C(C)O3)c3ccc(c(Cl)c3)Oc3cc2cc(c3OC2OC(CO)C(O)C(O)C2OC2CC(C)(NCCCCCCCCCCCCc3ccccc3)C(O)C(C)O2)Oc2ccc(cc2Cl)C1O (stereo not drawn) [Compound 234, 12-phenyldodecyl] | 0.5 µg/mL (≈ 0.272 µM) | 4 µg/mL (≈ 2.18 µM) | 16 µg/mL (≈ 8.71 µM)
4 | CNC(CC(C)C)C(=O)NC1C(=O)NC(CC(N)=O)C(=O)NC2C(=O)NC3C(=O)NC(C(=O)NC(C(=O)O)c4cc(O)cc(O)c4-c4cc3ccc4O)C(OC3CC(C)(N)C(O)C(C)O3)c3ccc(c(Cl)c3)Oc3cc2cc(c3OC2OC(CO)C(O)C(O)C2OC2CC(C)(NCc3ccc(-c4ccc(Cl)cc4)cc3)C(O)C(C)O2)Oc2ccc(cc2Cl)C1O (stereo not drawn) [Compound 229, 4-[4-chlorophenyl]benzyl-A82846B] | ≤ 0.06 µg/mL | 0.25 µg/mL (≈ 0.139 µM) | 2 µg/mL (≈ 1.12 µM)
5 | CNC(CC(C)C)C(=O)NC1C(=O)NC(CC(N)=O)C(=O)NC2C(=O)NC3C(=O)NC(C(=O)NC(C(=O)O)c4cc(O)cc(O)c4-c4cc3ccc4O)C(OC3CC(C)(N)C(O)C(C)O3)c3ccc(c(Cl)c3)Oc3cc2cc(c3OC2OC(CO)C(O)C(O)C2OC2CC(C)(NCc3ccc4ccc5cccc6ccc3c4c56)C(O)C(C)O2)Oc2ccc(cc2Cl)C1O (stereo not drawn) [Compound 16, 1-pyrenylmethyl] | 0.5 µg/mL (≈ 0.277 µM) | 2 µg/mL (≈ 1.11 µM) | 1 µg/mL (≈ 0.553 µM)
6 | CNC(CC(C)C)C(=O)NC1C(=O)NC(CC(N)=O)C(=O)NC2C(=O)NC3C(=O)NC(C(=O)NC(C(=O)O)c4cc(O)cc(O)c4-c4cc3ccc4O)C(OC3CC(C)(N)C(O)C(C)O3)c3ccc(c(Cl)c3)Oc3cc2cc(c3OC2OC(CO)C(O)C(O)C2OC2CC(C)(NCc3cccc(Oc4ccc(Cl)cc4)c3)C(O)C(C)O2)Oc2ccc(cc2Cl)C1O (stereo not drawn) [Compound 86] | ≤ 0.06 µg/mL | ≤ 0.06 µg/mL | 1 µg/mL (≈ 0.553 µM)
7 | CNC(CC(C)C)C(=O)NC1C(=O)NC(CC(N)=O)C(=O)NC2C(=O)NC3C(=O)NC(C(=O)NC(C(=O)O)c4cc(O)cc(O)c4-c4cc3ccc4O)C(OC3CC(C)(N)C(O)C(C)O3)c3ccc(c(Cl)c3)Oc3cc2cc(c3OC2OC(CO)C(O)C(O)C2OC2CC(C)(NCc3ccc(-c4ccc(C#N)cc4)cc3)C(O)C(C)O2)Oc2ccc(cc2Cl)C1O (stereo not drawn) [Compound 231, 4-[4-cyanophenyl]benzyl] | ≤ 0.06 µg/mL | ≤ 0.06 µg/mL | 0.5 µg/mL (≈ 0.28 µM)
8 | CNC(CC(C)C)C(=O)NC1C(=O)NC(CC(N)=O)C(=O)NC2C(=O)NC3C(=O)NC(C(=O)NC(C(=O)O)c4cc(O)cc(O)c4-c4cc3ccc4O)C(OC3CC(C)(N)C(O)C(C)O3)c3ccc(c(Cl)c3)Oc3cc2cc(c3OC2OC(CO)C(O)C(O)C2OC2CC(C)(NCCc3ccc4ccccc4c3)C(O)C(C)O2)Oc2ccc(cc2Cl)C1O (stereo not drawn) [Compound 179, 2-[2-napthyl]ethyl] | ≤ 0.06 µg/mL | ≤ 0.06 µg/mL | 1 µg/mL (≈ 0.573 µM)
9 | CNC(CC(C)C)C(=O)NC1C(=O)NC(CC(N)=O)C(=O)NC2C(=O)NC3C(=O)NC(C(=O)NC(C(=O)O)c4cc(O)cc(O)c4-c4cc3ccc4O)C(OC3CC(C)(N)C(O)C(C)O3)c3ccc(c(Cl)c3)Oc3cc2cc(c3OC2OC(CO)C(O)C(O)C2OC2CC(C)(NCc3ccc(S(=O)(=O)N4CCCC4)cc3)C(O)C(C)O2)Oc2ccc(cc2Cl)C1O (stereo not drawn) [Compound 174, 4-[1-pyrrolidinosulfonyl]benzyl] | ≤ 0.06 µg/mL | ≤ 0.06 µg/mL | 16 µg/mL (≈ 8.81 µM)
10 | CNC(CC(C)C)C(=O)NC1C(=O)NC(CC(N)=O)C(=O)NC2C(=O)NC3C(=O)NC(C(=O)NC(C(=O)O)c4cc(O)cc(O)c4-c4cc3ccc4O)C(OC3CC(C)(N)C(O)C(C)O3)c3ccc(cc3)Oc3cc2cc(c3OC2OC(CO)C(O)C(O)C2OC2CC(C)(NCc3ccc(Oc4ccccc4)cc3)C(O)C(C)O2)Oc2ccc(cc2)C1O (stereo not drawn) [Compound 184, 4-phenoxybenzyl] | 1 µg/mL (≈ 0.586 µM) | 0.5 µg/mL (≈ 0.293 µM) | 4 µg/mL (≈ 2.34 µM)
11 | CNC(CC(C)C)C(=O)NC1C(=O)NC(CC(N)=O)C(=O)NC2C(=O)NC3C(=O)NC(C(=O)NC(C(=O)O)c4cc(O)cc(O)c4-c4cc3ccc4O)C(OC3CC(C)(N)C(O)C(C)O3)c3ccc(c(Cl)c3)Oc3cc2cc(c3OC2OC(CO)C(O)C(O)C2OC2CC(C)(NCCc3cccc(Oc4ccccc4)c3)C(O)C(C)O2)Oc2ccc(cc2Cl)C1O (stereo not drawn) [Compound 62, 3-phenoxyphenethyl] | ≤ 0.06 µg/mL | 0.5 µg/mL (≈ 0.28 µM) | 4 µg/mL (≈ 2.24 µM)

Now from value to molecule:

Row | MIC [1] | MIC [2] | MIC [3] | Compound
12 | ≤ 0.06 µg/mL | 1 µg/mL (≈ 0.559 µM) | 0.5 µg/mL (≈ 0.28 µM) | CNC(CC(C)C)C(=O)NC1C(=O)NC(CC(N)=O)C(=O)NC2C(=O)NC3C(=O)NC(C(=O)NC(C(=O)O)c4cc(O)cc(O)c4-c4cc3ccc4O)C(OC3CC(C)(N)C(O)C(C)O3)c3ccc(c(Cl)c3)Oc3cc2cc(c3OC2OC(CO)C(O)C(O)C2OC2CC(C)(NCc3ccc(-c4ccc(OC)cc4)cc3)C(O)C(C)O2)Oc2ccc(cc2Cl)C1O (stereo not drawn) [Compound 54, 4-[4-methoxyphenyl]benzyl]
13 | ≤ 0.06 µg/mL | 0.25 µg/mL (≈ 0.139 µM) | 4 µg/mL (≈ 2.22 µM) | CNC(CC(C)C)C(=O)NC1C(=O)NC(CC(N)=O)C(=O)NC2C(=O)NC3C(=O)NC(C(=O)NC(C(=O)O)c4cc(O)cc(O)c4-c4cc3ccc4O)C(OC3CC(C)(N)C(O)C(C)O3)c3ccc(c(Cl)c3)Oc3cc2cc(c3OC2OC(CO)C(O)C(O)C2OC2CC(C)(NCc3ccc(-c4ccccc4[N+](=O)[O-])cc3)C(O)C(C)O2)Oc2ccc(cc2Cl)C1O (stereo not drawn) [Compound 102, 4-[2-nitrophenyl]benzyl]
14 | 1 µg/mL (≈ 0.557 µM) | 2 µg/mL (≈ 1.11 µM) | 8 µg/mL (≈ 4.46 µM) | CNC(CC(C)C)C(=O)NC1C(=O)NC(CC(N)=O)C(=O)NC2C(=O)NC3C(=O)NC(C(=O)NC(C(=O)O)c4cc(O)cc(O)c4-c4cc3ccc4O)C(OC3CC(C)(N)C(O)C(C)O3)c3ccc(c(Cl)c3)Oc3cc2cc(c3OC2OC(CO)C(O)C(O)C2OC2CC(C)(NCc3ccc(-c4ccc(OC)cc4)s3)C(O)C(C)O2)Oc2ccc(cc2Cl)C1O (stereo not drawn) [Compound 71, 5-[4-methoxyphenyl]-2-thienylinethyl]
15 | ≤ 0.06 µg/mL | 0.5 µg/mL (≈ 0.286 µM) | 8 µg/mL (≈ 4.57 µM) | CNC(CC(C)C)C(=O)NC1C(=O)NC(CC(N)=O)C(=O)NC2C(=O)NC3C(=O)NC(C(=O)NC(C(=O)O)c4cc(O)cc(O)c4-c4cc3ccc4O)C(OC3CC(C)(N)C(O)C(C)O3)c3ccc(c(Cl)c3)Oc3cc2cc(c3OC2OC(CO)C(O)C(O)C2OC2CC(C)(NCC3CCC(c4ccccc4)C3)C(O)C(C)O2)Oc2ccc(cc2Cl)C1O (stereo not drawn) [Compound 140, 3-phenylcyclopentylmethyl]
16 | 0.25 µg/mL (≈ 0.138 µM) | 1 µg/mL (≈ 0.55 µM) | 1 µg/mL (≈ 0.55 µM) | CNC(CC(C)C)C(=O)NC1C(=O)NC(CC(N)=O)C(=O)NC2C(=O)NC3C(=O)NC(C(=O)NC(C(=O)O)c4cc(O)cc(O)c4-c4cc3ccc4O)C(OC3CC(C)(N)C(O)C(C)O3)c3ccc(c(Cl)c3)Oc3cc2cc(c3OC2OC(CO)C(O)C(O)C2OC2CC(C)(NCc3c4ccccc4c(Cl)c4ccccc34)C(O)C(C)O2)Oc2ccc(cc2Cl)C1O (stereo not drawn) [Compound 18, 9-[10-chloro]anthranylmethyl]
17 | 0.5 µg/mL (≈ 0.281 µM) | 1 µg/mL (≈ 0.562 µM) | 0.5 µg/mL (≈ 0.281 µM) | CNC(CC(C)C)C(=O)NC1C(=O)NC(CC(N)=O)C(=O)NC2C(=O)NC3C(=O)NC(C(=O)NC(C(=O)O)c4cc(O)cc(O)c4-c4cc3ccc4O)C(OC3CC(C)(N)C(O)C(C)O3)c3ccc(c(Cl)c3)Oc3cc2cc(c3OC2OC(CO)C(O)C(O)C2OC2CC(C)(NCc3ccc(N4CCN(C)CC4)cc3)C(O)C(C)O2)Oc2ccc(cc2Cl)C1O (stereo not drawn) [Compound 146, 4-[4-methylpiperazino]benzyl]
18 | 0.25 µg/mL (≈ 0.157 µM) | 2 µg/mL (≈ 1.26 µM) | 0.25 µg/mL (≈ 0.157 µM) | CNC(CC(C)C)C(=O)NC1C(=O)NC(CC(N)=O)C(=O)NC2C(=O)NC3C(=O)NC(C(=O)NC(C(=O)O)c4cc(O)cc(O)c4-c4cc3ccc4O)C(O)c3ccc(c(Cl)c3)Oc3cc2cc(c3OC2OC(CO)C(O)C(O)C2OC2CC(C)(NCc3cccc4ccccc34)C(O)C(C)O2)Oc2ccc(cc2Cl)C1O (stereo not drawn) [Compound 180, 1-napthylmethyl]
19 | ≤ 0.06 µg/mL | ≤ 0.06 µg/mL | 8 µg/mL (≈ 4.78 µM) | C=CCCCCNC1(C)CC(OC2C(Oc3c4cc5cc3Oc3ccc(cc3Cl)C(OC3CC(C)(N)C(O)C(C)O3)C3NC(=O)C(NC(=O)C5NC(=O)C(CC(N)=O)NC(=O)C(NC(=O)C(CC(C)C)NC)C(O)c5ccc(c(Cl)c5)O4)c4ccc(O)c(c4)-c4c(O)cc(O)cc4C(C(=O)O)NC3=O)OC(CO)C(O)C2O)OC(C)C1O (stereo not drawn) [Compound 217, 5-hexenyl]
20 | 1 µg/mL (≈ 0.528 µM) | 8 µg/mL (≈ 4.22 µM) | 2 µg/mL (≈ 1.06 µM) | CNC(CC(C)C)C(=O)NC1C(=O)NC(CC(N)=O)C(=O)NC2C(=O)NC3C(=O)NC(C(=O)NC(C(=O)O)c4cc(O)cc(O)c4-c4cc3ccc4O)C(OC3CC(C)(N)C(O)C(C)O3)c3ccc(c(Cl)c3)Oc3cc2cc(c3OC2OC(CO)C(O)C(O)C2OC2CC(C)(NCc3ccc(OCc4ccccc4)c(OCc4ccccc4)c3)C(O)C(C)O2)Oc2ccc(cc2Cl)C1O (stereo not drawn) [Compound 53]
